Measured values reported in PMC8117003, “Pharmacokinetic Profile and Oral Bioavailability of Diosgenin, Charantin, and Hydroxychalcone From a Polyherbal Formulation” (Frontiers in Pharmacology, 2021).
Values joined by “and” are separate entries in the source; they are usually repeats but may differ in a detail not shown here. Equal values may be shown once. Read-outs that look alike come from different tables or passages of the source.

Experiments:
[1] = Pharmacokinetics and absolute bioavailability of pure marker compounds after single oral and i.v. dose; format: in vivo, male Wistar rats; settings: for MRT: MRT (mean residence time); for half-life: t 1/2 (plasma half-life); for k el: plasma, read-out: Kel (elimination rate constant) (converted); for k el / Kel (elimination rate constant): rat plasma
Method: Plasma concentrations of active marker compounds were determined using validated high-performance thin layer chromatography (HPTLC) with the UV detection method.
The plasma samples (150 µl) were deproteinized by adding mixture of methanol: dichloromethane (1:1), followed by vortex mixing at 3000 rpm for 5 min. The supernatant was separated and further extracted with about 1.5 ml of ethyl acetate by mixing on vortex mixer at 3000 rpm for 10 min. The ethyl acetate layer was then collected and evaporated to dryness, followed by reconstitution with mobile phase (200 µl) containing chloroform: glacial acetic acid: methanol: water ((4.0:3.0:2.0:1.0) v/v and 100 µl was applied on a HPTLC plate. The optimized HPTLC conditions for development and quantification of the constituents is given in Table 2.
Absolute bioavailabilities of marker compounds viz. diosgenin, charantin, and hydroxychalcone were determined in male Wistar rats. The animals weighing 300–350 gm were fasted overnight before the dosing with free access to drinking water throughout the experimental period. For the purpose of dosing all the three marker compounds viz, diosgenin, charantin, and hydroxychalcone were suspended in water to make the dose of 15 mg/kg per oral to be administrated to the groups of […]. The animals were divided into two groups with six animals in each group. The first group received the marker compounds in the dose of 1.5 mg/kg i.v. via lateral tail vein, while the second group received the marker compounds in the dose of 15 mg/kg p.o. The rats were anesthetized using ether and blood samples were collected through puncturing the retro-orbital plexus at 0, 0.17, 0.5, 1, 2, 4, 6, 12, and 24 h time points. Blood samples were centrifuged to separate plasma and stored at −20°C until bioanalysis.
Non-compartmental analysis of data was performed using statistical moment theory. The peak plasma concentration (Cmax) and the corresponding time (Tmax) were directly obtained from the raw data.
The area under the plasma concentration vs. time curve upto the last quantifiable point, AUC(0-t), was calculated by the linear and log-linear trapezoidal rule summation: AUC(0−t) =∑C0+Ct/2× Tt− T0.
The AUC(0-t) was extrapolated to infinity (i.e., […]) by adding the quotient of Clast/Kel, AUC(t−∞) = Clast/Kel,
Kel was calculated by the linear regression of the log-transformed concentrations of the last three data points in the terminal phase. Kel = −slope × 2.303.
The half-life of the elimination phase was obtained from using the relationship, t 1/2 = 0.693/Kel.
Clearance was calculated using the relationship Cl = Vd × Kel
Apparent volume of distribution was calculated using relationship Vd = Dose Administered/Plasma concentration.
Absolute oral bioavailability (F) was calculated using relationship F = {[AUC (oral)/AUC (iv)] × [Dose (iv)/Dose (oral)]} × 100.

[2] = Stability of marker compounds (bioanalytical HPTLC, quality control samples); format: in vitro ADME, rat; settings: for Freeze thaw stability / Short-term room temperature stability: rat plasma
Method: Sample stability was determined by analyzing samples for quality control for analyte’s stock stability in solvent, refrigerator stock solution stability, freeze and thaw stability, and bench top stability. The stability experiments were carried out to evaluate the degradations of the marker compounds under different experimental conditions. […] As per the acceptance criteria, % ratio (Stability/comparison) should be within 85–115%; from the above results, it was concluded that all the marker compounds were within the acceptance criteria for stability study Table 7.

[3] = male, Wistar, rat, in vivo, iv, 1.5 mg/kg
[4] = male, Wistar, rat, in vivo, po, 15 mg/kg
[5] = pure marker, oral single dose 15 mg/kg, 15 mg/kg

## C[C@@H]1CC[C@@]2(OC1)O[C@H]1C[C@H]3[C@@H]4CC=C5C[C@@H](O)CC[C@]5(C)[C@H]4CC[C@]3(C)[C@H]1[C@@H]2C [Diosgenin]
[1]; male, Wistar, rat, in vivo
  bioavailability: 9 ± 0.2%
[1]; [3]
  AUC 0-∞: 4957.5 ± 440 ng·h/mL
  Cl (drug clearance): 0.2221 ± 0.05 mL/h/kg
  Cmax: 612.2 ± 100 ng/mL
  MRT (mean residence time): 9.9420 ± 0.90 h
  Vd (apparent volume of distribution): 0.0025397 ± 0.00057 L/kg
  t 1/2 (plasma half-life): 7.9300 ± 0.37 h
  AUC(0-inf): 4470 ng·h/mL
  MRT: 8.2 h
  half-life: 7.56 h
[1]; male, Wistar, rat, in vivo, iv, 1.5 mg/kg, Cl (drug clearance)
  clearance: 220 mL/h/kg
[1]; male, Wistar, rat, in vivo, iv, 1.5 mg/kg, Cmax
  Cmax: 570 ng/mL
[1]; male, Wistar, rat, in vivo, iv, 1.5 mg/kg, Vd (apparent volume of distribution)
  Vd: 2.5 L/kg
[1]; [4]
  AUC 0-∞: 4475.3 ± 60 ng·h/mL
  Cl (drug clearance): 2.5143 ± 0.09 mL/h/kg
  Cmax: 577.3 ± 12 ng/mL
  MRT (mean residence time): 8.2008 ± 0.15 h
  Tmax: 1 h
  t 1/2 (plasma half-life): 7.5638 ± 0.21 h
  AUC(0-inf): 4950 ng·h/mL
  MRT: 9.94 h
  half-life: 7.93 h
[1]; male, Wistar, rat, in vivo, po, 15 mg/kg, Cmax
  Cmax: 610 ng/mL
[1]; male, Wistar, rat, iv, 1.5 mg/kg, pure marker, IV single dose 1.5 mg/kg
  k el: 2.5e-05 s⁻¹
[1]; male, Wistar, rat, po, 15 mg/kg, pure marker, oral single dose 15 mg/kg
  k el: 2.22e-05 s⁻¹
[1]; pure marker, IV single dose 1.5 mg/kg
  AUMC 0-∞: 17.3937 ± 2.10 µg.h^2/ml
[1]; pure marker, IV single dose 1.5 mg/kg, 1.5 mg/kg
  Kel (elimination rate constant): 0.0875 ± 0.004 h⁻¹
[1]; pure marker, oral single dose 15 mg/kg
  AUMC 0-∞: 36.700 ± 0.77 µg.h^2/ml
[1]; [5]
  Kel (elimination rate constant): 0.0917 ± 0.003 h⁻¹
  Ka (rate of absorption): 1.1 h⁻¹ and 1.1 ± 0.10 h⁻¹
[2]; 0.4 µg/ml
  Refrigerator standard stock solution stability: 91.73 ± 0.46%
  Room temperature standard stock solution stability: 85.18 ± 0.45%
  Freeze thaw stability: 87.06%
  Short-term room temperature stability: 98.64%
[2]; 0.8 µg/ml
  Refrigerator standard stock solution stability: 90.24 ± 1.13%
  Room temperature standard stock solution stability: 84.86 ± 1.23%
  Freeze thaw stability: 94.52%
  Short-term room temperature stability: 97.90%
[2]; 1.2 µg/ml
  Refrigerator standard stock solution stability: 89.56 ± 2.21%
  Room temperature standard stock solution stability: 85.03 ± 2.16%
  Freeze thaw stability: 97.86%
  Short-term room temperature stability: 98.25%
[2]; plasma, under different experimental conditions
  Degradation in plasma: no significant degradation

## Charantin
[1]; rat, in vivo
  Absolute bioavailability: 8.18 ± 0.36%
[1]; rat, in vivo, iv, 1.5 mg/kg
  AUMC 0-∞: 182.9438 ± 1.74 µg.h^2/ml
[1]; rat, in vivo, po, 15 mg/kg
  AUMC 0-∞: 176.7245 ± 1.83 µg.h^2/ml
  Cl (drug clearance): 5.9268 ± 0.31 mL/h/kg
  Tmax: 6 h
[2]
  Degradation in plasma: no significant degradation
